Measurements taken from patent US20100137449A1, “SUBSTITUTED 1,3-CYCLOPENTADIONE MULTI-TARGET PROTEIN KINASE MODULATORS OF CANCER, ANGIOGENESIS AND THE INFLAMMATORY PATHWAYS ASSOCIATED THEREWITH” (METAPROTEOMICS, LLC, priority 2007, published 2010).

How the values were obtained:
Test in all cases: KinaseProfiler Assay
SGK2(h) = target: T1, SGK2(h) (Homo sapiens, UniProt Q9HBY8)
T1 sequence (Q9HBY8 1-367): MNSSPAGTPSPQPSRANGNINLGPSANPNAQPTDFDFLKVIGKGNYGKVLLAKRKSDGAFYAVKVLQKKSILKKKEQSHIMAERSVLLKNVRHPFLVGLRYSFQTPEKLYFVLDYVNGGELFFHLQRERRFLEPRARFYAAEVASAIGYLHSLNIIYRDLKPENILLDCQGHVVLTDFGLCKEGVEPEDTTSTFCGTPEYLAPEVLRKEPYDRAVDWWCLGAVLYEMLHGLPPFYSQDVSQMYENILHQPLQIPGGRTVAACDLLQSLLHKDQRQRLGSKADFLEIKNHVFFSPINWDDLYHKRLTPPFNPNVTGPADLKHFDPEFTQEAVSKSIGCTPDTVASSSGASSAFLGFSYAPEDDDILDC

Ret(V804L)(h) = Ret(V804L)(h) (Homo sapiens, UniProt P07949, V804L)
Sequence of Ret(V804L)(h) (P07949 29-1114 V804L): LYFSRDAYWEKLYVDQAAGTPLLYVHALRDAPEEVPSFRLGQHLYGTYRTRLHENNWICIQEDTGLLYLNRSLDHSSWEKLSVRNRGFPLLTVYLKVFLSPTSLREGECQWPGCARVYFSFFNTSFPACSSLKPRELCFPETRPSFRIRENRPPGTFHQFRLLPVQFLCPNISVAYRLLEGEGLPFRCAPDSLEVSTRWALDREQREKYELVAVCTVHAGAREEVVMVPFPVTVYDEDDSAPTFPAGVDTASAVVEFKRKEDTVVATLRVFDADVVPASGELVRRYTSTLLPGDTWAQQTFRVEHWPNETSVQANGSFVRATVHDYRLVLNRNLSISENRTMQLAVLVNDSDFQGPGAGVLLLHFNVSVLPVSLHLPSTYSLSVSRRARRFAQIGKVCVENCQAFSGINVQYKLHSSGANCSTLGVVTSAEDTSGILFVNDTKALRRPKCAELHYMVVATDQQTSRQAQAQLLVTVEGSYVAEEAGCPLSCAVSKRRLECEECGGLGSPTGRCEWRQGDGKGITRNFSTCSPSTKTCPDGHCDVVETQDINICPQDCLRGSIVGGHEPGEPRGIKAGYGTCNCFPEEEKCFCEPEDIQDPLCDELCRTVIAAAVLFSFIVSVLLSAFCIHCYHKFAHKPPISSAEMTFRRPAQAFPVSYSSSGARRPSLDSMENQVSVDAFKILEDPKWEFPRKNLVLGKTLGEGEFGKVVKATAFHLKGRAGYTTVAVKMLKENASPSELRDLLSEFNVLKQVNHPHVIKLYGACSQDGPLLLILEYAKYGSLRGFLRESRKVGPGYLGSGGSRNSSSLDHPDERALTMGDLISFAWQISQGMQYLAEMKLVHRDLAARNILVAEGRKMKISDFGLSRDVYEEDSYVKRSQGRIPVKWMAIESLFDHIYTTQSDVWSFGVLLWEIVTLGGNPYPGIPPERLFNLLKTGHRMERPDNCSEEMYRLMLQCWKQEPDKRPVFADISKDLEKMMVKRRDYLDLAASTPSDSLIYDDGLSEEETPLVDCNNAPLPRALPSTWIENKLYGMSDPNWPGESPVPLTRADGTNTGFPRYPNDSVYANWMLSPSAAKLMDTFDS

PI 3-Kinaseδ(h) = target: PI 3-Kinaseδ(h)
Abl(T315I)(h) = Abl(T315I)(h) (Homo sapiens, UniProt P00519, T315I)
CHK2(R145W)(h) = CHK2(R145W)(h) (Homo sapiens, UniProt O96017, R145W)
Sequence of CHK2(R145W)(h) (O96017 whole entry R145W): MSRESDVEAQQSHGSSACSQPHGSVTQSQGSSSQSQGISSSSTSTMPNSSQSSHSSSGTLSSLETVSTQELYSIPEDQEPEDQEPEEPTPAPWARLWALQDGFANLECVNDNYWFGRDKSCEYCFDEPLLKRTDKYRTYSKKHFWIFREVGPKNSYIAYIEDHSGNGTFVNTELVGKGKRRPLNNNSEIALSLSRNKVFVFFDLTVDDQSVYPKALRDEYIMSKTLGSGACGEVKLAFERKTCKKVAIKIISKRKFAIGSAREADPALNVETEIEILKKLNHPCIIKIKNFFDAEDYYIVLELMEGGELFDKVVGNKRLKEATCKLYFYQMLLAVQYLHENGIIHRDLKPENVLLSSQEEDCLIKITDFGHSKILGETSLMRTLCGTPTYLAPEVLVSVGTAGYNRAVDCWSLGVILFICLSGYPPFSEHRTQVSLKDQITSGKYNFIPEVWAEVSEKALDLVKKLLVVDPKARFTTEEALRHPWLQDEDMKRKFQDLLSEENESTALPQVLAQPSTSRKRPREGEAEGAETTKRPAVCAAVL

TBK1(h) = target: T2, TBK1(h) (Homo sapiens, UniProt Q9UHD2)
T2 sequence (Q9UHD2 1-729): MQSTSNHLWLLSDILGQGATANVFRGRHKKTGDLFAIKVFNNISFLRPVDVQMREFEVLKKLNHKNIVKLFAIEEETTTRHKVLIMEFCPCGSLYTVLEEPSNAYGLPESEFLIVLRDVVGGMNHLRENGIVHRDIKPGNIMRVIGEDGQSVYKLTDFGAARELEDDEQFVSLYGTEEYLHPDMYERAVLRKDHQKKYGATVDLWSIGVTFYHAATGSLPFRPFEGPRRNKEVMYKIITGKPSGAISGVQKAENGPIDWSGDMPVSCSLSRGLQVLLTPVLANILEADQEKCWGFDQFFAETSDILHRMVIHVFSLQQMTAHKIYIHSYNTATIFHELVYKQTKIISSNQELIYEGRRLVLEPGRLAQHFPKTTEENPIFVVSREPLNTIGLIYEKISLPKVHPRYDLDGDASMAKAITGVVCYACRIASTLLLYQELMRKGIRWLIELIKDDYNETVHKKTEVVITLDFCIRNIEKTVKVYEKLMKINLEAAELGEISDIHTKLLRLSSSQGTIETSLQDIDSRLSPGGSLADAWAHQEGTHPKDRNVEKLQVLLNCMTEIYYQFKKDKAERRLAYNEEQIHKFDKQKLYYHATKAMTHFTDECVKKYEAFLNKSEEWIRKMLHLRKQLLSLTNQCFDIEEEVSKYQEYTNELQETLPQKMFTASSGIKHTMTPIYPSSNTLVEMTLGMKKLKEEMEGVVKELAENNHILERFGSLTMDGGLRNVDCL

TrkB(h) = TrkB(h) (Homo sapiens, UniProt Q16620)
MSK1(h) = MSK1(h) (Homo sapiens, UniProt O75582)
Sequence of MSK1(h) (O75582 whole entry): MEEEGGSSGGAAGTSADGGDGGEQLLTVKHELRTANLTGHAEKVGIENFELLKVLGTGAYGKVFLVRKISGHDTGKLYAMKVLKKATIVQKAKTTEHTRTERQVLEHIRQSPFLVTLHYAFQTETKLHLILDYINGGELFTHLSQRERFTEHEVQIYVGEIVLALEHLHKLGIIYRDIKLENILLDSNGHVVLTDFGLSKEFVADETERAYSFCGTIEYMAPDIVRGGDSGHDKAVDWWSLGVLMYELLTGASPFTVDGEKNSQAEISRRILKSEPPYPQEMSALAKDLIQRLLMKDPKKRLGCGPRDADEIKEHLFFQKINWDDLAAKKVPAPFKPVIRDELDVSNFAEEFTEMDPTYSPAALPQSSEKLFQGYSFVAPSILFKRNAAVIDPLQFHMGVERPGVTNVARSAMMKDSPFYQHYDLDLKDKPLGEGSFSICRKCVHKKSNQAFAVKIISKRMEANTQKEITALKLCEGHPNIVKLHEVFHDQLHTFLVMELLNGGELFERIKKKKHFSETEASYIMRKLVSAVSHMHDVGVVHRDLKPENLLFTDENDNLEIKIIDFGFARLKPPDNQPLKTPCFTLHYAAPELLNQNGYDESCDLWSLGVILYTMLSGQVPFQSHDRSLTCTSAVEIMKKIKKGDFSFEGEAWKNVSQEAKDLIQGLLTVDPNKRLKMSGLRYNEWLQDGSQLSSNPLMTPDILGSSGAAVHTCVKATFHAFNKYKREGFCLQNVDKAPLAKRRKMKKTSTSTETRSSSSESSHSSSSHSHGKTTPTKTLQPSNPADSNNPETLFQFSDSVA

MARK1(h) = MARK1(h) (Homo sapiens, UniProt Q9P0L2)
Sequence of MARK1(h) (Q9P0L2 whole entry): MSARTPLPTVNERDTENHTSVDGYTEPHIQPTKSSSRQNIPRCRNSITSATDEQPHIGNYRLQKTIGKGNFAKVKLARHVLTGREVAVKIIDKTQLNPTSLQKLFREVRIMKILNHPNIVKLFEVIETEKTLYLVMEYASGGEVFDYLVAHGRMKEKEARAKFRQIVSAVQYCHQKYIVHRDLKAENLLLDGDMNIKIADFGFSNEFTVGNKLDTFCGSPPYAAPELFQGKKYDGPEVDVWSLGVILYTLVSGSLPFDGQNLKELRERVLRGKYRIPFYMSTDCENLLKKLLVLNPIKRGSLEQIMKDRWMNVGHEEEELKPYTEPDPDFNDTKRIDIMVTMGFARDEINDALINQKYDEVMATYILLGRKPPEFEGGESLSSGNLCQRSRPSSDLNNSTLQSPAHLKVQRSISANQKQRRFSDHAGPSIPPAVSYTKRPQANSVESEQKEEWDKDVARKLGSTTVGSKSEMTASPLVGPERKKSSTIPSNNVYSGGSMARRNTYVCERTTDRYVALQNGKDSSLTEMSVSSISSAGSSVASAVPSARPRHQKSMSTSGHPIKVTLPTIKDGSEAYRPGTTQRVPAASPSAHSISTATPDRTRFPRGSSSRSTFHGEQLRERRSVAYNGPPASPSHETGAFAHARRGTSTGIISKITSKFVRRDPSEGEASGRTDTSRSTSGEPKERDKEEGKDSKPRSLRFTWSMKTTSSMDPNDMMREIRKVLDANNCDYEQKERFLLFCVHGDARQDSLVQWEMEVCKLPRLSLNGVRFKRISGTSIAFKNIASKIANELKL

CaMKI(h) = CaMKI(h) (Homo sapiens, UniProt Q14012)
Sequence of CaMKI(h) (Q14012 whole entry): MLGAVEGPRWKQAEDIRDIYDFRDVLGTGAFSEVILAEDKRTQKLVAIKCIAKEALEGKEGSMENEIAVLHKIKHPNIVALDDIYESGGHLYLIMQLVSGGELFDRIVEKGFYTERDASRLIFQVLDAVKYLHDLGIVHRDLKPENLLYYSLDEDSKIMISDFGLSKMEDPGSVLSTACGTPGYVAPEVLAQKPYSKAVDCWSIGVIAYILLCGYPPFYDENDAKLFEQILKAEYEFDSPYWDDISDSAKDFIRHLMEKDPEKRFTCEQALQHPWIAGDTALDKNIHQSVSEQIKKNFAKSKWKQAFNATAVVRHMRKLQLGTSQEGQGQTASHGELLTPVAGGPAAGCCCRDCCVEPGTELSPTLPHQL

Fms(h) = Fms(h) (Homo sapiens, UniProt P07333)
Sequence of Fms(h) (P07333 20-972): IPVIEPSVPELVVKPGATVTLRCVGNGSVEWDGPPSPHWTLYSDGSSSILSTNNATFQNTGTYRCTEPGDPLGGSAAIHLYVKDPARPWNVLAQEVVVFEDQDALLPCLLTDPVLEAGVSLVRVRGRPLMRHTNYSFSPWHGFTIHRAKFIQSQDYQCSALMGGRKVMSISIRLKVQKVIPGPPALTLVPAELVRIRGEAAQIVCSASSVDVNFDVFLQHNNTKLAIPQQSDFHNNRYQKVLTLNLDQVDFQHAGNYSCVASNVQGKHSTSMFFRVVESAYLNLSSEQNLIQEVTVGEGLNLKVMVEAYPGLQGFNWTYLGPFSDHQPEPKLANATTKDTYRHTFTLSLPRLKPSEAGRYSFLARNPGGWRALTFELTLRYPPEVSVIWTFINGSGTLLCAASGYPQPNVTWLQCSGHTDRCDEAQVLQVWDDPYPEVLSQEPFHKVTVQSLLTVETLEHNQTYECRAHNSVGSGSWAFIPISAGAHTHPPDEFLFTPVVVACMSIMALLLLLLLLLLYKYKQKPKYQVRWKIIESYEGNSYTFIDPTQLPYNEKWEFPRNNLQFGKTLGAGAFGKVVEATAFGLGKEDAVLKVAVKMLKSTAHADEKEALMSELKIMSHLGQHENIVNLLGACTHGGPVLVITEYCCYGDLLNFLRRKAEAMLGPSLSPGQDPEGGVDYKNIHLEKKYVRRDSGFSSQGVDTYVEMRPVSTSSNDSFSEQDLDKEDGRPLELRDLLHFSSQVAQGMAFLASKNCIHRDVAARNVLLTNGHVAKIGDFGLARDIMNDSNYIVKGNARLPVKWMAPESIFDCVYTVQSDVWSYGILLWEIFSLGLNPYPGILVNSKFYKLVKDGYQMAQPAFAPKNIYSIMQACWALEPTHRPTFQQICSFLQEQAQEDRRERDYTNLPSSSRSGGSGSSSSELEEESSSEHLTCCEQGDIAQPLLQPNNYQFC

Abl(H396P)(h) = Abl(H396P)(h) (Homo sapiens, UniProt P00519, H396P)
Arg(m) = Arg(m) (Mus musculus, UniProt Q4JIM5)

## CC(C)CCC(=O)[C@]1(O)C(O)=C(C(=O)C(C)C)C(=O)[C@H]1CCC(C)C [TH2, tetrahydroiso-cohumulone]
SGK2(h); 1 μg/ml
  kinase inhibition: 133% of control
SGK2(h); 5 μg/ml
  kinase inhibition: 116% of control
SGK2(h); 25 μg/ml
  kinase inhibition: 112% of control
SGK2(h); 50 μg/ml
  kinase inhibition: 121% of control
SGK2(h); 100 μg/ml
  kinase inhibition: 69% of control
Ret(V804L)(h); 1 μg/ml
  kinase inhibition: 110% of control
Ret(V804L)(h); 5 μg/ml
  kinase inhibition: 103% of control
Ret(V804L)(h); 25 μg/ml
  kinase inhibition: 91% of control
Ret(V804L)(h); 50 μg/ml
  kinase inhibition: 81% of control
Ret(V804L)(h); 100 μg/ml
  kinase inhibition: 60% of control
PI 3-Kinaseδ(h); 1 μg/ml
  kinase inhibition: 95% of control
PI 3-Kinaseδ(h); 5 μg/ml
  kinase inhibition: 100% of control
PI 3-Kinaseδ(h); 25 μg/ml
  kinase inhibition: 72% of control
PI 3-Kinaseδ(h); 50 μg/ml
  kinase inhibition: 42% of control
PI 3-Kinaseδ(h); 100 μg/ml
  kinase inhibition: 19% of control
Abl(T315I)(h); 1 μg/ml
  kinase inhibition: 102% of control
Abl(T315I)(h); 5 μg/ml
  kinase inhibition: 98% of control
Abl(T315I)(h); 25 μg/ml
  kinase inhibition: 79% of control
Abl(T315I)(h); 50 μg/ml
  kinase inhibition: 68% of control
Abl(T315I)(h); 100 μg/ml
  kinase inhibition: 58% of control
CHK2(R145W)(h); 1 μg/ml
  kinase inhibition: 110% of control
CHK2(R145W)(h); 5 μg/ml
  kinase inhibition: 112% of control
CHK2(R145W)(h); 25 μg/ml
  kinase inhibition: 99% of control
CHK2(R145W)(h); 50 μg/ml
  kinase inhibition: 86% of control
CHK2(R145W)(h); 100 μg/ml
  kinase inhibition: 80% of control
TBK1(h); 1 μg/ml
  kinase inhibition: 108% of control
TBK1(h); 5 μg/ml
  kinase inhibition: 107% of control
TBK1(h); 25 μg/ml
  kinase inhibition: 97% of control
TBK1(h); 50 μg/ml
  kinase inhibition: 86% of control
TBK1(h); 100 μg/ml
  kinase inhibition: 70% of control
TrkB(h); 1 μg/ml
  kinase inhibition: 136% of control
TrkB(h); 5 μg/ml
  kinase inhibition: 132% of control
TrkB(h); 25 μg/ml
  kinase inhibition: 144% of control
TrkB(h); 50 μg/ml
  kinase inhibition: 118% of control
TrkB(h); 100 μg/ml
  kinase inhibition: 78% of control
MSK1(h); 1 μg/ml
  kinase inhibition: 98% of control
MSK1(h); 5 μg/ml
  kinase inhibition: 103% of control
MSK1(h); 25 μg/ml
  kinase inhibition: 92% of control
MSK1(h); 50 μg/ml
  kinase inhibition: 64% of control
MSK1(h); 100 μg/ml
  kinase inhibition: 52% of control
MARK1(h); 1 μg/ml
  kinase inhibition: 109% of control
MARK1(h); 5 μg/ml
  kinase inhibition: 110% of control
MARK1(h); 25 μg/ml
  kinase inhibition: 97% of control
MARK1(h); 50 μg/ml
  kinase inhibition: 90% of control
MARK1(h); 100 μg/ml
  kinase inhibition: 63% of control
CaMKI(h); 1 μg/ml
  kinase inhibition: 96% of control
CaMKI(h); 5 μg/ml
  kinase inhibition: 93% of control
CaMKI(h); 25 μg/ml
  kinase inhibition: 73% of control
CaMKI(h); 50 μg/ml
  kinase inhibition: 48% of control
CaMKI(h); 100 μg/ml
  kinase inhibition: 48% of control
Fms(h); 1 μg/ml
  kinase inhibition: 116% of control
Fms(h); 5 μg/ml
  kinase inhibition: 103% of control
Fms(h); 25 μg/ml
  kinase inhibition: 121% of control
Fms(h); 50 μg/ml
  kinase inhibition: 117% of control
Fms(h); 100 μg/ml
  kinase inhibition: 98% of control
Abl(H396P)(h); 1 μg/ml
  kinase inhibition: 96% of control
Abl(H396P)(h); 5 μg/ml
  kinase inhibition: 103% of control
Abl(H396P)(h); 25 μg/ml
  kinase inhibition: 83% of control
Abl(H396P)(h); 50 μg/ml
  kinase inhibition: 65% of control
Abl(H396P)(h); 100 μg/ml
  kinase inhibition: 54% of control
Arg(m); 1 μg/ml
  kinase inhibition: 100% of control
Arg(m); 5 μg/ml
  kinase inhibition: 101% of control
Arg(m); 25 μg/ml
  kinase inhibition: 103% of control
Arg(m); 50 μg/ml
  kinase inhibition: 88% of control
Arg(m); 100 μg/ml
  kinase inhibition: 62% of control
